According to US12685312B2, “Sulfonamide apyrase inhibitors” (Texas Crop Science, Inc., priority 2022, dated 2026):

System: apyrase
Test: Screen for apyrase inhibitors (Method 1, in vitro phosphate-release absorbance assay)
Type: biochemical
Details: inhibitor conc at 1 mM stock, 1 hr room temperature, absorbance 630 nm; rounded average of two assay results
Method in brief: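 Phosphate-release colorimetric assay (Windsor method) in 60 mM Hepes, 3 mM MgCl2, 3 mM CaCl2, 3 mM ATP, pH 6.5, with compound or DMSO control added. Released phosphate developed with ammonium molybdate and ascorbic acid/TCA, then stopped with citrate/acetic acid.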

% Inhibition of Apyrase | Compound
15% | COc1ccccc1NS(=O)(=O)c1ccc(C(=O)Nc2ccc(F)c([N+](=O)[O-])c2)cc1 [I-414, N-(4-fluoro-3-nitrophenyl)-4-(N-(2-methoxyphenyl)sulfamoyl)benzamide]
13% | O=C(Nc1ccc2c(c1)OCCCO2)c1ccc(S(=O)(=O)Nc2ccc(F)cc2)cc1 [I-415, N-(3,4-dihydro-2H-benzo[b][1,4]dioxepin-7-yl)-4-(N-(4-fluorophenyl)sulfamoyl)benzamide]
13% | COc1ccc(NS(=O)(=O)c2ccc(C(=O)Nc3ccc(F)cc3C)cc2)cc1 [I-416, N-(4-fluoro-2-methylphenyl)-4-(N-(4-methoxyphenyl)sulfamoyl)benzamide]
73% | COc1ccc(OC)c(NC(=O)c2cccc(S(=O)(=O)N3c4ccccc4CC3C)c2)c1 (stereo not drawn) [I-429, N-(2,5-dimethoxyphenyl)-3-((2-methylindolin-1-yl)sulfonyl)benzamide]
68% | CCOC(=O)c1sc(NC(=O)c2cccc(S(=O)(=O)Nc3ccc(F)cc3)c2)cc1C [I-431, ethyl 5-(3-(N-(4-fluorophenyl)sulfamoyl)benzamido)-3-methylthiophene-2-carboxylate]
66% | CCOC(=O)c1sc(NC(=O)c2cccc(S(=O)(=O)Nc3ccccc3F)c2)cc1C [I-432, ethyl 5-(3-(N-(2-fluorophenyl)sulfamoyl)benzamido)-3-methylthiophene-2-carboxylate]
65% | Cc1cc(Cl)ccc1NC(=O)c1ccc(Cl)c(S(=O)(=O)Nc2ccc(Cl)cc2C)c1 [I-433, 4-chloro-N-(4-chloro-2-methylphenyl)-3-(N-(4-chloro-2-methylphenyl)sulfamoyl)benzamide]
65% | CCOc1ccccc1NC(=O)c1ccc(Cl)c(S(=O)(=O)N2CCc3ccccc32)c1 [I-434, 4-chloro-N-(2-ethoxyphenyl)-3-(indolin-1-ylsulfonyl)benzamide]
64% | COc1ccc(NS(=O)(=O)c2cccc(C(=O)N3c4ccccc4CC3C)c2)cc1 (stereo not drawn) [I-435, N-(4-methoxyphenyl)-3-(2-methylindoline-1-carbonyl)benzenesulfonamide]
64% | COc1ccc(S(=O)(=O)N2CCc3ccccc32)cc1C(=O)Nc1ccccc1C [I-436, 5-(indolin-1-ylsulfonyl)-2-methoxy-N-(o-tolyl)benzamide]
64% | CC1CCc2c(sc(NC(=O)c3cccc(S(=O)(=O)Nc4ccccc4Cl)c3)c2C#N)C1 (stereo not drawn) [I-437, 3-(N-(2-chlorophenyl)sulfamoyl)-N-(3-cyano-6-methyl-4,5,6,7-tetrahydrobenzo[b]thiophen-2-yl)benzamide]
63% | Cc1cccc(NS(=O)(=O)c2cc(C(=O)N3CCCc4ccccc43)ccc2C)c1 [I-438, 2-methyl-5-(1,2,3,4-tetrahydroquinoline-1-carbonyl)-N-(m-tolyl)benzenesulfonamide]
63% | Nc1c(Cl)cc(NC(=O)c2cccc(S(=O)(=O)N3CCc4ccccc43)c2)cc1Cl [I-439, N-(4-amino-3,5-dichlorophenyl)-3-(indolin-1-ylsulfonyl)benzamide]

Further lines, the compound ahead of its results:

Compound | % Inhibition of Apyrase
COc1ccc([N+](=O)[O-])cc1NS(=O)(=O)c1ccc(C(=O)Nc2ccc(Cl)cc2)cc1 [I-382, N-(4-chlorophenyl)-4-(N-(2-methoxy-5-nitrophenyl)sulfamoyl)benzamide] | 69%
O=C(Nc1ccccc1OC(F)F)c1ccc(S(=O)(=O)Nc2ccccc2F)cc1 [I-383, N-(2-(difluoromethoxy)phenyl)-4-(N-(2-fluorophenyl)sulfamoyl)benzamide] | 66%
Cc1ccc(NS(=O)(=O)c2ccc(C(=O)Nc3cccc(C#N)c3)cc2)cc1C [I-384, N-(3-cyanophenyl)-4-(N-(3,4-dimethylphenyl)sulfamoyl)benzamide] | 66%
O=C(Nc1ccc(Cl)c(S(=O)(=O)N2CCOCC2)c1)c1ccc(S(=O)(=O)Nc2cccc(C(F)(F)F)c2)cc1 [I-386, N-(4-chloro-3-(morpholinosulfonyl)phenyl)-4-(N-(3-(trifluoromethyl)phenyl)sulfamoyl)benzamide] | 65%
O=C(Nc1ccc2[nH]nnc2c1)c1ccc(S(=O)(=O)Nc2ccc(Cl)cc2)cc1 [I-389, N-(1H-benzo[d][1,2,3]triazol-5-yl)-4-(N-(4-chlorophenyl)sulfamoyl)benzamide] | 63%
Cc1ccc(NC(=O)c2ccc(S(=O)(=O)Nc3ccc(Cl)cc3)cc2)cc1S(=O)(=O)N(C)C [I-390, 4-(N-(4-chlorophenyl)sulfamoyl)-N-(3-(N,N-dimethylsulfamoyl)-4-methylphenyl)benzamide] | 62%
Cc1ccc(NS(=O)(=O)c2ccc(C(=O)N3c4ccccc4CC3C)cc2)cc1 (stereo not drawn) [I-391, 4-(2-methylindoline-1-carbonyl)-N-(p-tolyl)benzenesulfonamide] | 62%
O=C(Nc1cccc(S(=O)(=O)N2CCOCC2)c1)c1ccc(S(=O)(=O)Nc2ccc(Cl)cc2)cc1 [I-393, 4-(N-(4-chlorophenyl)sulfamoyl)-N-(3-(morpholinosulfonyl)phenyl)benzamide] | 57%
Cc1ccc(NS(=O)(=O)c2ccc(C(=O)Nc3ccccc3C)cc2)cc1 [I-394, N-(o-tolyl)-4-(N-(p-tolyl)sulfamoyl)benzamide] | 54%
CCc1cccc(NC(=O)c2ccc(S(=O)(=O)Nc3ccc(Cl)cc3)cc2)c1 [I-395, 4-(N-(4-chlorophenyl)sulfamoyl)-N-(3-ethylphenyl)benzamide] | 51%
Cc1ccc(NS(=O)(=O)c2ccc(C(=O)Nc3ccc(Cl)cc3C)cc2)cc1 [I-396, N-(4-chloro-2-methylphenyl)-4-(N-(p-tolyl)sulfamoyl)benzamide] | 50%
O=C(c1ccc(S(=O)(=O)Nc2ccccc2)cc1)N1CCCc2ccccc21 [I-397, N-phenyl-4-(1,2,3,4-tetrahydroquinoline-1-carbonyl)benzenesulfonamide] | 45%
CC(=O)c1cccc(NC(=O)c2ccc(S(=O)(=O)Nc3ccc(C)cc3)cc2)c1 [I-398, N-(3-acetylphenyl)-4-(N-(p-tolyl)sulfamoyl)benzamide] | 44%
COc1ccc(NC(=O)c2ccc(S(=O)(=O)Nc3cccc(C(F)(F)F)c3)cc2)c(OC)c1 [I-399, N-(2,4-dimethoxyphenyl)-4-(N-(3-(trifluoromethyl)phenyl)sulfamoyl)benzamide] | 43%
O=C(Nc1ccc(F)cc1)c1ccc(S(=O)(=O)Nc2ccccc2Cl)cc1 [I-400, 4-(N-(2-chlorophenyl)sulfamoyl)-N-(4-fluorophenyl)benzamide] | 41%
O=C(Nc1ccc2c(c1)OCO2)c1ccc(S(=O)(=O)Nc2ccccc2F)cc1 [I-401, N-(benzo[d][1,3]dioxol-5-yl)-4-(N-(2-fluorophenyl)sulfamoyl)benzamide] | 41%
COc1ccc(NC(=O)c2ccc(S(=O)(=O)Nc3ccccc3)cc2)cc1 [I-402, N-(4-methoxyphenyl)-4-(N-phenylsulfamoyl)benzamide] | 40%
COc1ccc(NC(=O)c2ccc(S(=O)(=O)Nc3cccc(C(F)(F)F)c3)cc2)cc1OC [I-403, N-(3,4-dimethoxyphenyl)-4-(N-(3-(trifluoromethyl)phenyl)sulfamoyl)benzamide] | 38%
Cc1ccccc1NS(=O)(=O)c1ccc(C(=O)Nc2cccc([N+](=O)[O-])c2C)cc1 [I-404, N-(2-methyl-3-nitrophenyl)-4-(N-(o-tolyl)sulfamoyl)benzamide] | 38%
O=C(Nc1ccccc1OC(F)F)c1ccc(S(=O)(=O)Nc2ccccc2)cc1 [I-405, N-(2-(difluoromethoxy)phenyl)-4-(N-phenylsulfamoyl)benzamide] | 35%
N#Cc1cccc(NC(=O)c2ccc(S(=O)(=O)Nc3ccccc3F)cc2)c1 [I-406, N-(3-cyanophenyl)-4-(N-(2-fluorophenyl)sulfamoyl)benzamide] | 30%
O=C(Nc1cccc(C(F)(F)F)c1)c1ccc(S(=O)(=O)Nc2ccccc2F)cc1 [I-407, 4-(N-(2-fluorophenyl)sulfamoyl)-N-(3-(trifluoromethyl)phenyl)benzamide] | 30%
COc1ccc(NC(=O)c2ccc(S(=O)(=O)Nc3ccc(F)cc3)cc2)cc1 [I-408, 4-(N-(4-fluorophenyl)sulfamoyl)-N-(4-methoxyphenyl)benzamide] | 30%
COc1ccccc1NS(=O)(=O)c1ccc(C(=O)Nc2ccc3c(c2)OCO3)cc1 [I-409, N-(benzo[d][1,3]dioxol-5-yl)-4-(N-(2-methoxyphenyl)sulfamoyl)benzamide] | 30%
COc1ccccc1NS(=O)(=O)c1ccc(C(=O)Nc2cccc(C(F)(F)F)c2)cc1 [I-410, 4-(N-(2-methoxyphenyl)sulfamoyl)-N-(3-(trifluoromethyl)phenyl)benzamide] | 29%
Cc1ccccc1NS(=O)(=O)c1ccc(C(=O)Nc2ccc(Cl)cc2)cc1 [I-411, N-(4-chlorophenyl)-4-(N-(o-tolyl)sulfamoyl)benzamide] | 21%
COc1ccc([N+](=O)[O-])cc1NS(=O)(=O)c1ccc(C(=O)Nc2ccc(F)cc2F)cc1 [I-412, N-(2,4-difluorophenyl)-4-(N-(2-methoxy-5-nitrophenyl)sulfamoyl)benzamide] | 18%
COc1ccc(NS(=O)(=O)c2ccc(C(=O)Nc3cccc(C(C)=O)c3)cc2)cc1 [I-413, N-(3-acetylphenyl)-4-(N-(4-methoxyphenyl)sulfamoyl)benzamide] | 16%
COc1ccc([N+](=O)[O-])cc1NS(=O)(=O)c1cccc(C(=O)Nc2ccc(F)c([N+](=O)[O-])c2)c1 [I-430, N-(4-fluoro-3-nitrophenyl)-3-(N-(2-methoxy-5-nitrophenyl)sulfamoyl)benzamide] | 72%
